From patent US7919117B2, “Transdermal delivery of (R)-3,3-diphenylpropylamin-monoestern” (UCB Pharma GmbH, priority 2003, dated 2011)
Blank lines part the entries; values can stand above or below the molecule they belong to.

Columns and labels:
[1] = Flow of active ingredient in the human skin model according to Tanojo (in-vitro flux); format: in vitro ADME; settings: see Table 1
Text: 3.2. Determination of the Flow of Active Ingredient in the Human Skin Model (a) experimental Design The determination of the fesoterodine flux through human skin was essentially performed as described in H. Tanojo et al, J. Control Rel. 45 (1997) 41-47, where instead of the silicone membrane a dialysis membrane was used [[…] Dialysemembran, type 10. 14, obtained from the company Dianorm, Munich, Germany, manufactured from neutral cellulose, exclusion size 5000 Da, thickness (dry): 25 μm; pretreatment in accordance with manufacturer information]. Human skin in a thickness of approximately 250 μm was obtained from the abdomen. A TTS with a surface of 2.545 cm^2 was applied on human skin of equal surface size, where the skin on the acceptor site lays on a […] membrane (FIG. 5). PBS (0.066 molar) was used as the acceptor phase at pH 6.2 and a temperature of 32±0.5° C. The experiments were performed over 72 hours with a 5 ml/hour flux, whereby samples were taken every 3 hours. At the times that the samples are taken, the releasing medium is replaced with fresh medium thermo stated at 32±0.5° C. and the amount of the released fesoterodine measured per HPLC. […]

[2] = Stabilization of fesoterodine in various matrices during storage (drop in concentration); format: physicochemical; settings: storage for 6 months at 5° C.
Description: While, for example, the free base of fesoterodine is decomposed as an oil after storage for 6 months at 5° C. to around 3-4% a drop in concentration cannot be established or can only be established essentially to a lesser extent when fesoterodine is incorporated in matrices, which contain polar components.

[3] = Stability at processing temperatures in the hot melt procedure; format: physicochemical; settings: processing temperatures up to 200° C.
Text: In a hot melt procedure the polymers and any auxiliary agents are thermally melted and mixed without the use of any solvents and the meltings spread out on foil. The active ingredient is normally introduced directly into the liquid melt. […] The dynamic viscosity may be determined in the process as described in U.S. Pat. No. 5,328,696.
An alternative procedure that dispenses with the use of organic solvents is the hot melt procedure. In this procedure the polymer or the contact adhesive are melted at temperatures between 70 and 200° C., preferably between 90 and 160° C. and especially preferably between 100 and 150° C. and the active ingredient introduced into the homogenized matrix melt. After a brief homogenization the adhesive matrix that contains the active ingredient is cooled again so that the active ingredient is exposed to a thermal load in general for less than 5 minutes, if desired even for 4, 3, 2 or even for less than 1 minute. Following this the active ingredient is present in the solidified polymer melt. During the process the active ingredient is broadly shielded from critical environmental influences (light, oxygen).

[4] = Flow of active ingredient in the mouse skin model (in-vitro flux, horizontal diffusion cell); format: in vitro ADME; settings: salt introduced into the polymer layer, also with oleic acid etc. (Table 1)
Description: 3.1. Determination of the Flow of Active Ingredient in the Mouse Skin Model Belly and back skin in a thickness of approximately 120 to 150 μm was used in a horizontal diffusion cell for the flux measurements through mouse skin. Medium: phosphate buffer solution (0.066 molar) pH 6.2, 32° C. Release of the active ingredient was determined by HPLC.

SMILES: CC(C)N(CCC(c1ccccc1)c1cc(CO)ccc1O)C(C)C (stereo not shown) [2-[3-(1,1-diisopropylamino)-1-phenylpropyl]-4-(hydroxymethyl)phenol]
rate of penetration through the human skin (in words) [1]: very low rate of penetration

Decomposition of the free base stored as an oil [2]: 3-4%
stability at hot melt processing temperatures (in words) [3]: surprisingly stable
SMILES: CC(C)C(=O)Oc1ccc(CO)cc1[C@H](CCN(C(C)C)C(C)C)c1ccccc1 [fesoterodine, (R)-2-[3-(1,1-diisopropylamino)-1-phenylpropyl]-4-(hydroxymethyl)phenyl isobutyrate]

SMILES: CC(C)C(=O)Oc1ccc(CO)cc1[C@H](CCN(C(C)C)C(C)C)c1ccccc1.O=C(O)/C=C/C(=O)O [fumarate salt from fesoterodine, (R)-2-[3-(1,1-diisopropylamino)-1-phenylpropyl]-4-(hydroxymethyl)phenyl isobutyrate hydrogen fumarate]
flux rates (in words) [4]: flux rates not sufficient for transdermal treatment
